Data reported in article PMC7838546, “A Thermostable, Modified Cathelicidin-Derived Peptide With Enhanced Membrane-Active Activity Against Salmonella enterica serovar Typhimurium” (Frontiers in Microbiology, 2021).
Ends that are not written are not given here.

How the values were obtained:
[1] = tested on: S. enterica serovar 4,5,12:i:- H2-044 (foodborne isolate); format: cell-based, Salmonella enterica serovar 4,5,12:i:-; settings: H2-044, pork kidney, resistant Amp, C, T, SxT, intermediate Cp; for MIC: broth microdilution, 37°C, 24 h
Method: (§1) Salmonella enterica serovar Typhimurium ATCC 13311, 24 drug-resistant foodborne and eleven drug-resistant human borne S. enterica serovar Typhimurium and 4,5,12:i:- isolates (Table 1) were used as test microorganisms. They were previously isolated for molecular characterization in 2014 and kindly provided by Dr. Soraya Chaturongakul (Mahidol University, Thailand) ([Huoy et al., 2014]). All bacteria were cultured in Tryptic Soy Broth (TSB) and incubated at 37°C for 18 h. Mueller Hinton Broth (MHB) was then used to wash and rinse the bacteria. The bacterial suspensions were then diluted to obtain concentrations of 10^7 CFU/ml for inoculations.
(§2) A modified version of the National Committee for Clinical Laboratory Standards (NCCLS) broth microdilution method ([Steinberg et al., 1997]) was used to determine the minimum inhibitory concentrations (MICs) of peptide and compared to that of nisin. Fifty microliters of two-fold serial dilutions of each peptide [0.98–250 μg/ml in 0.01% (v/v) acetic acid and 0.2% (w/v) bovine serum albumin (BSA, Sigma-Aldrich, MO, United States)], were incubated with 50 μl of bacterial suspensions (approximately 10^7 CFU/ml) at 37°C for 24 h in a shaking incubator. MICs were taken as the lowest concentration of peptide at which growth was inhibited as observed by visual inspection. Bacterial cultures without peptides and uncultured broth were used as positive and negative controls, respectively. Minimal bactericidal concentrations (MBCs) were determined using a colony count assay ([Clinical Laboratory Standards Institute [CLSI], 2015]). Fifty microliters of samples from each non-turbid well in the MIC determination experiment was plated on Mueller Hinton Agar (MHA) and colonies were observed after overnight incubation at 37°C. MBCs were designated as the least concentration showing no colony growth on the plate. All of experiments were performed in triplicate.

[2] = tested on: S. enterica serovar 4,5,12:i:- H2-047 (foodborne isolate); test: MIC/MBC, broth microdilution and colony count; format: cell-based, Salmonella enterica serovar 4,5,12:i:-; settings: H2-047, pork liver, resistant Amp, intermediate Cp, broth microdilution, 37°C, 24 h
Method: as §1, §2

[3] = tested on: S. enterica serovar 4,5,12:i:- H2-055 (foodborne isolate); test: MIC/MBC, broth microdilution and colony count; format: cell-based, Salmonella enterica serovar 4,5,12:i:-; settings: H2-055, pork liver, resistant Amp, T, broth microdilution, 37°C, 24 h
Method: as §1, §2

[4] = tested on: S. enterica serovar 4,5,12:i:- H2-062 (foodborne isolate); test: MIC/MBC, broth microdilution and colony count; format: cell-based, Salmonella enterica serovar 4,5,12:i:-; settings: H2-062, pork intestine, resistant Amp, T, intermediate Cp, broth microdilution, 37°C, 24 h
Method: as §1, §2

[5] = tested on: S. enterica serovar 4,5,12:i:- H2-065 (foodborne isolate); test: MIC/MBC, broth microdilution and colony count; format: cell-based, Salmonella enterica serovar 4,5,12:i:-; settings: H2-065, pork liver, resistant Amp, T, broth microdilution, 37°C, 24 h
Method: as §1, §2

[6] = tested on: S. enterica serovar 4,5,12:i:- H2-067 (foodborne isolate); test: MIC/MBC, broth microdilution and colony count; format: cell-based, Salmonella enterica serovar 4,5,12:i:-; settings: H2-067, pork kidney, resistant Amp, T, broth microdilution, 37°C, 24 h
Method: as §1, §2

[7] = tested on: S. enterica serovar Typhimurium H1-001 (clinical isolate); test: MIC/MBC, broth microdilution and colony count; format: cell-based, Salmonella enterica serovar Typhimurium; settings: H1-001, blood, resistant Amp, Ctx, C, Cp, NA, T, intermediate Amc, broth microdilution, 37°C, 24 h
Method: as §1, §2

[8] = tested on: S. enterica serovar Typhimurium H1-006 (clinical isolate); test: MIC/MBC, broth microdilution and colony count; format: cell-based, Salmonella enterica serovar Typhimurium; settings: H1-006, blood; resistant NA; intermediate S, Cp; broth microdilution, 37°C, 24 h
Method: as §1, §2

[9] = tested on: S. enterica serovar Typhimurium H1-015 (clinical isolate); test: MIC/MBC, broth microdilution and colony count; format: cell-based, Salmonella enterica serovar Typhimurium; settings: H1-015, boot swab, resistant Amp, intermediate Cp, broth microdilution, 37°C, 24 h
Method: as §1, §2

[10] = tested on: S. enterica serovar Typhimurium H1-041 (clinical isolate); test: MIC/MBC, broth microdilution and colony count; format: cell-based, Salmonella enterica serovar Typhimurium; settings: H1-041, stool, resistant Amp, Ctx, C, T, SxT, intermediate Amc, Cp, NA, broth microdilution, 37°C, 24 h
Method: as §1, §2

[11] = tested on: S. enterica serovar Typhimurium H1-062 (clinical isolate); test: MIC/MBC, broth microdilution and colony count; format: cell-based, Salmonella enterica serovar Typhimurium; settings: H1-062, stool, resistant Amc, Amp, Ctx, C, NA, T, intermediate Cp, broth microdilution, 37°C, 24 h
Method: as §1, §2

[12] = tested on: L929 mouse fibroblast cells; test: Cytotoxicity assay (MTT); format: cell-based; settings: 24 h, up to 125 μg/ml
Method: The toxicity of P7 peptide on L929 mouse fibroblast cells was assessed by a dye reduction assay using 3-(4,5 dimethylthiazol-2-yl)-2,5-diphenyltetrazolium bromide (MTT). Briefly, 3 × 10^4 L929 cells in RPMI 1640 [supplemented with 10% (v/v) fetal bovine serum, 0.2% (w/v) sodium bicarbonate, 2 mM L-glutamine, 100 U/ml penicillin and […] streptomycin] were seeded into each well of 96-well plates and then incubated in a humidified atmosphere with 5% CO2 at 37°C for 24 h. After the incubation period, the peptide was added to obtain final concentrations of 0.98–250 μg/ml; plates were incubated at 37°C under 5% CO2 for 24 h. RPMI 1640 medium with and without cells were used as positive and negative controls, respectively. After incubation, a final concentration of 0.5 mg/ml MTT (Sigma-Aldrich, MO, United States) was added and incubated at 37°C under 5% CO2 for 4 h. Then, the supernatants were removed from each well and 150 μl of dimethyl sulfoxide (DMSO) was added and mixed thoroughly to solubilize the formazan crystals. Subsequently, absorbance was measured at 570 nm using a microplate reader. The cell viability (%) was calculated according to the formula:
%Cellviability=ODTreated-ODBlank/ODUntreated-ODBlank×100

[13] = tested on: human red blood cells (hRBCs); settings: highest concentration tested 250 μg/ml, ref Klubthawee et al., 2020; cited from earlier work
From the text: Recently, a 12-mer α-helical, cationic AMP (‘P7’) was designed based on the cathelicidin family using a template-modified strategy, and subsequently modified by truncation and amino acid substitution ([Klubthawee et al., 2020]). […] Furthermore, P7 sho ...

Substance | MIC [1] | MIC [2] [mg/L] | MIC [3] [mg/L] | MIC [4] [mg/L] | MIC [5] [mg/L] | MIC [6] [mg/L] | MIC [7] [mg/L] | MIC [8] [mg/L] | MIC [9] [mg/L] | MIC [10] [mg/L] | MIC [11] [mg/L] | MBC ([1]; colony count on MHA) | Cytotoxicity on L929 cells [12] | Hemolysis [13]
Nisin: authorized food preservative peptide, binds lipid II and forms membrane pores (ITSISLCTPGCKTGALMGCNMKTATCHCSIHVSK; cysteine pairing not given here; also: lantibiotic nisin-A; UniProt P13068 24-57, looked up) | >1000 µg/mL | >1000 | >1000 | >1000 | >1000 | >1000 | >1000 | >1000 | >1000 | >1000 | >1000 | – | – | –
KIAKRIWKILRR-NH2 [P7] | 7.81 (7.81) μg/ml | – | – | – | – | – | – | – | – | – | – | 7.81 (7.81) μg/ml | no cytotoxicity | less than 5%
